Values quoted from earlier work in patent US4894388A, “Glycosidase inhibitors and use thereof” (priority 1988, dated 1990).

tested on: human immunodeficiency virus (HIV); conditions: background literature; cited from earlier work

| SMILES | inhibition of HIV synctium formation and virus replication (in words) |
| --- | --- |
| OC[C@H]1NC[C@H](O)[C@@H](O)[C@@H]1O [1-deoxynojirimycin (DNJ), 1-deoxynojirimycin] | found to inhibit human immunodeficiency virus (HIV) synctium formation and virus replication |
| O[C@H]1[C@H](O)[C@@H](O)CN2CC[C@H](O)[C@H]12 [castanospermine] | found to inhibit human immunodeficiency virus (HIV) synctium formation and virus replication |
| OCC1NC(CO)C(O)C1O (stereo not drawn) [2,5-dihydroxymethyl-3,4-dihydroxypyrrolidine] | found to inhibit human immunodeficiency virus (HIV) synctium formation and virus replication |
